Results as given in the NIST ThermoML archive (doi:10.1016/j.fluid.2010.03.010).
± gives the expanded uncertainty stated by the source.

Details: Liquid, Vibrating tube method

CCCC[n+]1ccn(C)c1.O=S(=O)([N-]S(=O)(=O)C(F)(F)F)C(F)(F)F
Details	mass density [kg/m3]
345.15 K, 101.33 kPa	1392.16 ± 11
346.15 K, 101.33 kPa	1391.23 ± 11
347.15 K, 101.33 kPa	1390.31 ± 11
348.15 K, 101.33 kPa	1389.38 ± 11
349.15 K, 101.33 kPa	1388.46 ± 11
350.15 K, 101.33 kPa	1387.54 ± 11
351.15 K, 101.33 kPa	1386.61 ± 11
352.15 K, 101.33 kPa	1385.69 ± 11
353.15 K, 100 kPa	1385.8 ± 11
353.15 K, 101.33 kPa	1384.77 ± 11
353.15 K, 250 kPa	1385.9 ± 11
353.15 K, 500 kPa	1386.1 ± 11
353.15 K, 1000 kPa	1386.5 ± 11
353.15 K, 2000 kPa	1387.4 ± 11
353.15 K, 5000 kPa	1390.1 ± 11
353.15 K, 10000 kPa	1394.3 ± 11
353.15 K, 14990 kPa	1398.4 ± 11
353.15 K, 20010 kPa	1402.5 ± 11
353.15 K, 24990 kPa	1406.3 ± 11
353.15 K, 30010 kPa	1410.2 ± 11
353.15 K, 34990 kPa	1413.8 ± 11
353.15 K, 40000 kPa	1417.5 ± 11
353.15 K, 45000 kPa	1421 ± 11
353.15 K, 50000 kPa	1424.6 ± 12
353.15 K, 54990 kPa	1427.9 ± 12
353.15 K, 60010 kPa	1431.3 ± 12
354.15 K, 101.33 kPa	1383.85 ± 11
355.15 K, 101.33 kPa	1382.93 ± 11
356.15 K, 101.33 kPa	1382.01 ± 11
357.15 K, 101.33 kPa	1381.09 ± 11
358.15 K, 101.33 kPa	1380.17 ± 11
359.15 K, 101.33 kPa	1379.25 ± 11
360.15 K, 101.33 kPa	1378.34 ± 11
361.15 K, 101.33 kPa	1377.42 ± 11
362.15 K, 101.33 kPa	1376.5 ± 11
363.15 K, 100 kPa	1376.6 ± 11
363.15 K, 101.33 kPa	1375.58 ± 11
363.15 K, 250 kPa	1376.7 ± 11
363.15 K, 500 kPa	1376.9 ± 11
363.15 K, 1010 kPa	1377.4 ± 11
363.15 K, 4990 kPa	1381 ± 11
363.15 K, 10010 kPa	1385.4 ± 11
363.15 K, 14990 kPa	1389.6 ± 11
363.15 K, 20010 kPa	1393.8 ± 11
363.15 K, 25000 kPa	1397.8 ± 11
363.15 K, 30010 kPa	1401.7 ± 11
363.15 K, 34990 kPa	1405.5 ± 11
363.15 K, 40000 kPa	1409.2 ± 11
363.15 K, 45010 kPa	1412.8 ± 11
363.15 K, 50000 kPa	1416.4 ± 11
363.15 K, 54990 kPa	1419.9 ± 11
363.15 K, 60000 kPa	1423.4 ± 12
373.15 K, 100 kPa	1367.3 ± 11
373.15 K, 250 kPa	1367.4 ± 11
373.15 K, 500 kPa	1367.7 ± 11
373.15 K, 1010 kPa	1368.2 ± 11
373.15 K, 2000 kPa	1369.1 ± 11
373.15 K, 4990 kPa	1371.9 ± 11
373.15 K, 10000 kPa	1376.5 ± 11
373.15 K, 14990 kPa	1380.8 ± 11
373.15 K, 20000 kPa	1385.1 ± 11
373.15 K, 24990 kPa	1389.2 ± 11
373.15 K, 30010 kPa	1393.3 ± 11
373.15 K, 34970 kPa	1397.1 ± 11
373.15 K, 40000 kPa	1401 ± 11
373.15 K, 45000 kPa	1404.7 ± 11
373.15 K, 50000 kPa	1408.4 ± 11
373.15 K, 54990 kPa	1411.9 ± 11
373.15 K, 60010 kPa	1415.5 ± 11
393.15 K, 100 kPa	1348.8 ± 11
393.15 K, 250 kPa	1348.9 ± 11
393.15 K, 500 kPa	1349.2 ± 11
393.15 K, 1000 kPa	1349.7 ± 11
393.15 K, 2000 kPa	1350.7 ± 11
393.15 K, 4990 kPa	1353.7 ± 11
393.15 K, 10000 kPa	1358.6 ± 11
393.15 K, 15000 kPa	1363.2 ± 11
393.15 K, 20010 kPa	1367.8 ± 11
393.15 K, 25000 kPa	1372.1 ± 11
393.15 K, 30010 kPa	1376.4 ± 11
393.15 K, 35000 kPa	1380.5 ± 11
393.15 K, 40000 kPa	1384.6 ± 11
393.15 K, 45000 kPa	1388.5 ± 11
393.15 K, 50000 kPa	1392.4 ± 11
393.15 K, 55020 kPa	1396.2 ± 11
393.15 K, 60000 kPa	1399.9 ± 11
413.15 K, 100 kPa	1330 ± 11
413.15 K, 250 kPa	1330.2 ± 11
413.15 K, 500 kPa	1330.5 ± 11
413.15 K, 1000 kPa	1331 ± 11
413.15 K, 2000 kPa	1332.1 ± 11
413.15 K, 4990 kPa	1335.3 ± 11
413.15 K, 10000 kPa	1340.6 ± 11
413.15 K, 14990 kPa	1345.6 ± 11
413.15 K, 20010 kPa	1350.5 ± 11
413.15 K, 25000 kPa	1355.1 ± 11
413.15 K, 30000 kPa	1359.7 ± 11
413.15 K, 34990 kPa	1364 ± 11
413.15 K, 40000 kPa	1368.4 ± 11
413.15 K, 45000 kPa	1372.5 ± 11
413.15 K, 50000 kPa	1376.6 ± 11
413.15 K, 55000 kPa	1380.6 ± 11
413.15 K, 60000 kPa	1384.5 ± 11
433.15 K, 100 kPa	1311 ± 10
433.15 K, 250 kPa	1311.1 ± 10
433.15 K, 500 kPa	1311.4 ± 10
433.15 K, 1000 kPa	1312 ± 10
433.15 K, 2000 kPa	1313.2 ± 10
433.15 K, 4990 kPa	1316.7 ± 10
433.15 K, 10000 kPa	1322.4 ± 11
433.15 K, 15000 kPa	1327.8 ± 11
433.15 K, 20010 kPa	1333 ± 11
433.15 K, 25010 kPa	1338 ± 11
433.15 K, 30010 kPa	1342.9 ± 11
433.15 K, 34990 kPa	1347.5 ± 11
433.15 K, 40000 kPa	1352.1 ± 11
433.15 K, 45000 kPa	1356.6 ± 11
433.15 K, 50000 kPa	1360.9 ± 11
433.15 K, 55000 kPa	1365.1 ± 11
433.15 K, 60000 kPa	1369.3 ± 11
453.15 K, 100 kPa	1291.4 ± 10
453.15 K, 250 kPa	1291.7 ± 10
453.15 K, 500 kPa	1292 ± 10
453.15 K, 1000 kPa	1292.6 ± 10
453.15 K, 1950 kPa	1294 ± 10
453.15 K, 4990 kPa	1297.7 ± 10
453.15 K, 10000 kPa	1303.9 ± 10
453.15 K, 15000 kPa	1309.7 ± 10
453.15 K, 20000 kPa	1315.3 ± 10
453.15 K, 25000 kPa	1320.7 ± 11
453.15 K, 30010 kPa	1325.9 ± 11
453.15 K, 35000 kPa	1330.9 ± 11
453.15 K, 40000 kPa	1335.9 ± 11
453.15 K, 45010 kPa	1340.6 ± 11
453.15 K, 50000 kPa	1345.3 ± 11
453.15 K, 54990 kPa	1349.8 ± 11
453.15 K, 60000 kPa	1354.3 ± 11
473.15 K, 100 kPa	1271.4 ± 10
473.15 K, 250 kPa	1271.7 ± 10
473.15 K, 500 kPa	1272 ± 10
473.15 K, 990 kPa	1272.7 ± 10
473.15 K, 2000 kPa	1274.2 ± 10
473.15 K, 4990 kPa	1278.2 ± 10
473.15 K, 10000 kPa	1285 ± 10
473.15 K, 15000 kPa	1291.2 ± 10
473.15 K, 20010 kPa	1297.4 ± 10
473.15 K, 24990 kPa	1303.2 ± 10
473.15 K, 30010 kPa	1308.9 ± 10
473.15 K, 34990 kPa	1314.2 ± 10
473.15 K, 40010 kPa	1319.6 ± 11
473.15 K, 45000 kPa	1324.7 ± 11
473.15 K, 50000 kPa	1329.7 ± 11
473.15 K, 55000 kPa	1334.5 ± 11
473.15 K, 60000 kPa	1339.3 ± 11
